We go through 5 compounds from PubChem BioAssay AID1259407 (Chemical Carcinogenesis Research Information System (CCRIS), 2018).

The data set concerns CCRIS mutagenicity, Ames/micronucleus/aberration tests. Put plainly: CCRIS mutagenicity studies.
Setting [1] is: Test System: AMES SALMONELLA TYPHIMURIUM, Strain/Indicator: TA98, Metabolic Activation: NONE, Method: PREINCUBATION

The source made the active and inactive calls. No rule for the calls is given here.

For `Cc1ncc[nH]1`, the mutagenic call runs as follows: (End Point: IN VIVO MICRONUCLEUS, Test System: BONE MARROW POLYCHROMATIC ERYTHROCYTES, Species: MOUSE, Strain/Sex: B6C3F1/MALE, Route: IP) “inactive; negative”; (End Point: IN VIVO MICRONUCLEUS, Test System: BONE MARROW POLYCHROMATIC ERYTHROCYTES, Species: RAT, Strain/Sex: F344/N/MALE, Route: IP) “inactive; negative”; (End Point: IN VIVO MICRONUCLEUS, Test System: PERIPHERAL BLOOD NORMOCHROMATIC ERYTHROCYTES, Species: MOUSE, Strain/Sex: B6C3F1/MALE, FEMALE, Route: ORAL (DIET)) “active; positive”; (Test System: AMES SALMONELLA TYPHIMURIUM, Strain/Indicator: TA97, Metabolic Activation: HAMSTER, LIVER, S-9, AROCLOR 1254, Method: PREINCUBATION) “inactive; negative”; (Test System: AMES SALMONELLA TYPHIMURIUM, Strain/Indicator: TA97, Metabolic Activation: NONE, Method: PREINCUBATION) “inactive; negative”; (Test System: AMES SALMONELLA TYPHIMURIUM, Strain/Indicator: TA97, Metabolic Activation: RAT, LIVER, S-9, AROCLOR 1254, Method: PREINCUBATION) “inactive; negative”. For the same compound, the mutagenic call is “inactive; negative” (Test System: AMES SALMONELLA TYPHIMURIUM, Strain/Indicator: TA98, Metabolic Activation: HAMSTER, LIVER, S-9, AROCLOR 1254 (10%), Method: STANDARD PLATE); “inactive; negative” (Test System: AMES SALMONELLA TYPHIMURIUM, Strain/Indicator: TA98, Metabolic Activation: HAMSTER, LIVER, S-9, AROCLOR 1254, Method: PREINCUBATION); “inactive; negative” under setting [1]; “inactive; negative” (Test System: AMES SALMONELLA TYPHIMURIUM, Strain/Indicator: TA98, Metabolic Activation: NONE, Method: STANDARD PLATE); “inactive; negative” (Test System: AMES SALMONELLA TYPHIMURIUM, Strain/Indicator: TA98, Metabolic Activation: RAT, LIVER, S-9, AROCLOR 1254 (10%), Method: STANDARD PLATE); “inactive; negative” (Test System: AMES SALMONELLA TYPHIMURIUM, Strain/Indicator: TA98, Metabolic Activation: RAT, LIVER, S-9, AROCLOR 1254, Method: PREINCUBATION). Moreover, the mutagenic call was “inactive; negative” (Test System: AMES SALMONELLA TYPHIMURIUM, Strain/Indicator: TA100, Metabolic Activation: HAMSTER, LIVER, S-9, AROCLOR 1254 (10%), Method: STANDARD PLATE); “inactive; negative” (Test System: AMES SALMONELLA TYPHIMURIUM, Strain/Indicator: TA100, Metabolic Activation: HAMSTER, LIVER, S-9, AROCLOR 1254, Method: PREINCUBATION); “inactive; negative” (Test System: AMES SALMONELLA TYPHIMURIUM, Strain/Indicator: TA100, Metabolic Activation: NONE, Method: PREINCUBATION); “inactive; negative” (Test System: AMES SALMONELLA TYPHIMURIUM, Strain/Indicator: TA100, Metabolic Activation: NONE, Method: STANDARD PLATE); “inactive; negative” (Test System: AMES SALMONELLA TYPHIMURIUM, Strain/Indicator: TA100, Metabolic Activation: RAT, LIVER, S-9, AROCLOR 1254 (10%), Method: STANDARD PLATE); “inactive; negative” (Test System: AMES SALMONELLA TYPHIMURIUM, Strain/Indicator: TA100, Metabolic Activation: RAT, LIVER, S-9, AROCLOR 1254, Method: PREINCUBATION). The mutagenic call reads like this: (Test System: AMES SALMONELLA TYPHIMURIUM, Strain/Indicator: TA1535, Metabolic Activation: HAMSTER, LIVER, S-9, AROCLOR 1254 (10%), Method: STANDARD PLATE) “inactive; negative”; (Test System: AMES SALMONELLA TYPHIMURIUM, Strain/Indicator: TA1535, Metabolic Activation: HAMSTER, LIVER, S-9, AROCLOR 1254, Method: PREINCUBATION) “inactive; negative”; (Test System: AMES SALMONELLA TYPHIMURIUM, Strain/Indicator: TA1535, Metabolic Activation: NONE, Method: PREINCUBATION) “inactive; negative”; (Test System: AMES SALMONELLA TYPHIMURIUM, Strain/Indicator: TA1535, Metabolic Activation: NONE, Method: STANDARD PLATE) “inactive; negative”; (Test System: AMES SALMONELLA TYPHIMURIUM, Strain/Indicator: TA1535, Metabolic Activation: RAT, LIVER, S-9, AROCLOR 1254 (10%), Method: STANDARD PLATE) “inactive; negative”; (Test System: AMES SALMONELLA TYPHIMURIUM, Strain/Indicator: TA1535, Metabolic Activation: RAT, LIVER, S-9, AROCLOR 1254, Method: PREINCUBATION) “inactive; negative”. In addition, the mutagenic call was “inactive; negative” (Test System: AMES SALMONELLA TYPHIMURIUM, Strain/Indicator: TA1537, Metabolic Activation: HAMSTER, LIVER, S-9, AROCLOR 1254 (10%), Method: STANDARD PLATE); “inactive; negative” (Test System: AMES SALMONELLA TYPHIMURIUM, Strain/Indicator: TA1537, Metabolic Activation: NONE, Method: STANDARD PLATE); “inactive; negative” (Test System: AMES SALMONELLA TYPHIMURIUM, Strain/Indicator: TA1537, Metabolic Activation: RAT, LIVER, S-9, AROCLOR 1254 (10%), Method: STANDARD PLATE); “inactive; negative” (Test System: AMES SALMONELLA TYPHIMURIUM, Strain/Indicator: TA1538, Metabolic Activation: HAMSTER, LIVER, S-9, AROCLOR 1254 (10%), Method: STANDARD PLATE); “inactive; negative” (Test System: AMES SALMONELLA TYPHIMURIUM, Strain/Indicator: TA1538, Metabolic Activation: NONE, Method: STANDARD PLATE); “inactive; negative” (Test System: AMES SALMONELLA TYPHIMURIUM, Strain/Indicator: TA1538, Metabolic Activation: RAT, LIVER, S-9, AROCLOR 1254 (10%), Method: STANDARD PLATE). Besides, the mutagenic call by setting is: (Test System: MOUSE LYMPHOMA, Strain/Indicator: L5178Y (TK+/TK-), Metabolic Activation: NONE, Method: SUSPENSION/PLATE) “inactive; negative. reevaluation of results: inconclusive”; (Test System: MOUSE LYMPHOMA, Strain/Indicator: L5178Y (TK+/TK-), Metabolic Activation: RAT, LIVER, S-9, AROCLOR 1254, Method: SUSPENSION/PLATE) “inactive; negative. reevaluation of results: inconclusive”.
As to `O=C(O)c1ccccc1Nc1cccc(C(F)(F)F)c1`, the mutagenic call runs as follows: (Test System: AMES SALMONELLA TYPHIMURIUM, Strain/Indicator: TA98, Metabolic Activation: RAT, LIVER, S-9, PCB, Method: STANDARD PLATE) “inactive; negative”; (Test System: AMES SALMONELLA TYPHIMURIUM, Strain/Indicator: TA100, Metabolic Activation: RAT, LIVER, S-9, PCB, Method: STANDARD PLATE) “inactive; negative”; (Test System: AMES SALMONELLA TYPHIMURIUM, Strain/Indicator: TA1537, Metabolic Activation: RAT, LIVER, S-9, PCB, Method: STANDARD PLATE) “inactive; negative”; (Test System: AMES SALMONELLA TYPHIMURIUM, Strain/Indicator: TA1538, Metabolic Activation: RAT, LIVER, S-9, PCB, Method: STANDARD PLATE) “inactive; negative”; (Test System: E. COLI, Strain/Indicator: WP2 UVRA, Metabolic Activation: RAT, LIVER, S-9, PCB, Method: STANDARD PLATE) “inactive; negative”.
In the case of `Fc1cc2cccnc2c2ccccc12`, the mutagenic call (Test System: AMES SALMONELLA TYPHIMURIUM, Strain/Indicator: TA100, Metabolic Activation: RAT, LIVER, S-9, PHENOBARBITAL AND 5,6-BENZOFLAVONE, Method: PREINCUBATION) is “active; positive”.
In the case of `CCC(=O)N(O)c1ccc(/C=C/c2ccccc2)cc1`, the mutagenic call by setting is: under setting [1], “inactive; negative”; (Test System: AMES SALMONELLA TYPHIMURIUM, Strain/Indicator: TA98, Metabolic Activation: RAT, LIVER, CYTOSOL, Method: PREINCUBATION) “active; positive”; (Test System: AMES SALMONELLA TYPHIMURIUM, Strain/Indicator: TA98, Metabolic Activation: RAT, LIVER, MICROSOMES, Method: PREINCUBATION) “active; positive”.
For `O=S(=O)(O)Oc1ccc2ccc3c4ccccc4cc4ccc1c2c43`, the mutagenic call runs as follows: under setting [1], “inactive; negative”; (Test System: AMES SALMONELLA TYPHIMURIUM, Strain/Indicator: TA98, Metabolic Activation: RAT, LUNG, S-9, Method: PREINCUBATION) “inactive; negative”.
